Assay results reported in patent US11638709B2, “Rucaparib, Talazoparib, Veliparib, Olaparib and AZD 2461 for treating impaired skin wound healing” (AKRIBES BIOMEDICAL GMBH, priority 2017, dated 2023).

B1: PDGF: Platelet-derived growth factor, protein growth factor (Tonbo Biosciences) (protein, UniProt P01127 82-190, looked up)
Platelet-derived growth …: SLGSLTIAEPAMIAECKTRTEVFEISRRLIDRTNANFLVWPPCVEVQRCSGCCNNRNVQCRPTQVQLRPVQVRKIEIVRKKPIFKKATVTLEDHLACKCETVAAARPVT
modifications: PDGF-BB homodimer

What was measured:
[1] = system: primary human dermal fibroblasts (HDF); test: Primary human dermal fibroblast (HDF) proliferation assay (2D) with or without wound exudate; assay type: cell-based; details: for wound exudate-induced inhibition of fibroblast proliferation: FIG. 20, with wound exudate; for fibroblast proliferation in the absence of WE: FIG. 11, 2D fibroblast culture without WE (control); for HDF proliferation with wound exudate #78, plus PDGF / HDF proliferation with wound exudate #78: FIG. 15; for HDF proliferation with wound exudate #78, plus PDGF: compound + PDGF 20 ng/ml in medium + WE #78; for HDF proliferation with wound exudate #78: compound in medium + WE #78; for effect on PDGF-induced induction of proliferation in the absence of WE: with PDGF
Method: (§1) Primary human dermal fibroblasts (HDF) were purchased from CELLnTEC, Bern. They were routinely grown in Dulbecco's modified Eagle's medium (DMEM) containing 10% FCS, 2 mM glutamine, and 100 U/ml penicillin/100 μg/ml streptomycin. Media, antibiotics, and glutamine were bought from Lonza. The cells were used at passage 5-15. Cells were trypsinized and seeded at 5000 cells/well in 200 μl into the inner wells of 96-well plates. The outer wells were loaded with sterile water. The cells were allowed to adhere overnight and then incubated for 72 hours at 37° C. under the following conditions: graded compound concentrations or 20 ng/ml PDGF-BB (Tonbo Biosciences) in the absence or presence of different dilutions of sterile-filtered WE in medium. For control samples, 200 μl medium was added instead of specific stimuli. Alternatively, the cells were seeded into 384-well plates at 2500 cells/well directly together with test compounds or growth factors and WE or medium in a total volume of […].
(§2) At the end of the 72-hour incubation period, supernatants were removed for the determination of IL-1ß, and the cells were fixed with 4% paraformaldehyde (Morphisto) for 15 minutes at room temperature and washed 3 times with PBS. A control plate was fixed after the overnight adherence of the cells (day 1) to determine the starting cell number.
Total cellular protein was determined as a measure of cell number by staining the fixed cells with sulforhodamine B (SRB, Sigma). A 0.4% SRB solution in 1% acetic acid was added to the wells for 30 minutes. The wells were then washed with 1% acetic acid until the wash solution remained colorless. […] The average absorbance of the sample representing the day 1 starting cell number (for 96-well plates) was subtracted from the absorbance values of the WE-treated cells.
All experiments were carried out in triplicate for each sample and concentration, and means±standard deviation (SD) were used for the evaluation of the experiment. Results are expressed as percentage of control values for unstimulated cells.
(§3) Low molecular weight compounds (see list in Table 1) were dissolved in DMSO (Bioreagent for cell culture, Sigma) at 10 mM or 100 mM and diluted at least 1:1000 in medium for cellular assays (final DMSO concentration ≤0.1%).
(§4) Cells were incubated with compounds for 72 hours in proliferation assays and up to 8 days for FDM assay (refreshed after 4 days). When compounds were tested for their effect on WE stimulation, the incubation of cells with compounds was started and ended simultaneously with WE-incubation.

[2] = system: primary human dermal fibroblasts (HDF); test: Fibroblast-derived matrix (FDM) formation assay (3D) with wound exudate; assay type: cell-based; details: for 3D fibroblast-derived matrix formation assay, activity: FIGS. 9 and 10; for 3D fibroblast culture (FDM formation), effect of PARP inhibitors: FIG. 7, WE from patient #78
Method: HDF cells were seeded at 5000 cells/well on day −3 into 96-well tissue culture plates (1250 cells/well for 384-well plates), which had been pre-coated for 1 hour at 37° C. with 0.2% gelatin solution (Sigma). When the cells reached confluence (=day 0), a matrix promoting supplement (vitamin C: 2-phospho-L-ascorbic acid trisodium salt, 100 μg/ml; Sigma) was added together with test samples containing PDGF-BB, TGF-ß1 or graded concentrations of compounds −/+WE as described for the HDF proliferation assay. After 4 days, medium was replaced by fresh vitamin C—and stimulus—as well as compound-containing medium, maintaining the conditions initiated on day 0. TGF-ß1 and PDGF-BB were included as positive controls to promote FDM formation and cell growth, respectively. After a total incubation time of 8 days, FDM production was measured in fixed cultures via SRB staining and evaluated as described above. In some cases, the experiment was stopped and evaluated already on day 4.
as §3, §4

[3] = system: IL-1ß secretion by primary human dermal fibroblasts; test: IL-1ß secretion in the HDF proliferation assay with wound exudate (ELISA); assay type: cell-based; details: FIG. 20
Method: as §2
IL-1ß levels were determined with a commercial ELISA kit. The amount of IL-1ß contained in the wound exudate added to the cells was subtracted from the total IL-ß in the supernatants in order to determine the cytokine secreted by the cells.

PARP1 = PARP1 (Homo sapiens, UniProt P09874); details: cited from earlier work
Sequence of PARP1 (P09874 whole entry, species assumed): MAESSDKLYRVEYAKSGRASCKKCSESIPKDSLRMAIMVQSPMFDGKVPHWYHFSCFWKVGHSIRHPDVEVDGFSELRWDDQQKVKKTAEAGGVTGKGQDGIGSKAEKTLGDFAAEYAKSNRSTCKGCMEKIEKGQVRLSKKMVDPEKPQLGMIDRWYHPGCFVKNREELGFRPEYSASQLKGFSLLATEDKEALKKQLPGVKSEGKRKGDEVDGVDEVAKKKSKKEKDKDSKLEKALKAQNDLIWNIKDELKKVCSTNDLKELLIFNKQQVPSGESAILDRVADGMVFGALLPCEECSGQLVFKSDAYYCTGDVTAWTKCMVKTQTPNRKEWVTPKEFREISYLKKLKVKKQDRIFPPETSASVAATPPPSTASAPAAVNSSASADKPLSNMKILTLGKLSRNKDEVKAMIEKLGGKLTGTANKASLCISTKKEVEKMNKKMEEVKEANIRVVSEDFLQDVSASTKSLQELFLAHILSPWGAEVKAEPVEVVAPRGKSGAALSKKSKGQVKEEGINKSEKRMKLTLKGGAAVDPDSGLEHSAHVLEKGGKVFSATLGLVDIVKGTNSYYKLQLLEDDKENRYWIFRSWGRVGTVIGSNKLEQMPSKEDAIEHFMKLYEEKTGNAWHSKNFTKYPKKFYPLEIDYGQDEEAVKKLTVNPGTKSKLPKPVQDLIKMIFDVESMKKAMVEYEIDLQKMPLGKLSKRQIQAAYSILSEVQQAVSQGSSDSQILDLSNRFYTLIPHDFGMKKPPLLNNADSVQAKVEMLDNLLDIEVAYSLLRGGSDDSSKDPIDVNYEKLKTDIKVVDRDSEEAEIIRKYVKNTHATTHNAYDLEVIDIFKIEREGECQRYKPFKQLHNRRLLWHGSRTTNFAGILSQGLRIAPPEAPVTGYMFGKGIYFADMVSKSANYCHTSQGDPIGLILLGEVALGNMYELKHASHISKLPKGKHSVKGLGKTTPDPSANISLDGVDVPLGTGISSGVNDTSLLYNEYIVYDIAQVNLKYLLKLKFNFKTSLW

PARP = details: cited from earlier work
[4] = system: alpha-smooth muscle actin (α-SMA) in human dermal fibroblasts; test: Immunolocalization of alpha-smooth muscle actin in 2D HDF culture; assay type: cell-based; details: FIG. 16; absence of wound exudate; TGF-ß 20 ng/ml
Method: as §1
After fixation with paraformaldehyde, the cells were incubated for 1 hour at room temperature with a monoclonal mouse-anti-human antibody against alpha-smooth muscle actin (α-SMA) from e-Bioscience, washed 3 times with PBS and developed with an Alexa Fluor-labelled donkey-anti-mouse IgG (Molecular Probes). […]

Row | Molecule | 2D fibroblast culture (HDF proliferation), effect of PARP inhibitors ([1]; FIG. 9, WE from patient #43) | 2D fibroblast culture (HDF proliferation), effect of PARP inhibitors ([1]; FIG. 10, WE from patient #78) | wound exudate-induced IL-1ß secretion [3] | wound exudate-induced inhibition of fibroblast proliferation [1] | 3D fibroblast culture (FDM formation), effect of PARP inhibitors [2] | 2D fibroblast culture (HDF proliferation), effect of PARP inhibitors ([1]; FIG. 8, WE from patient #78) | also measured
1 | 2-phospho-L-ascorbic acid trisodium salt [vitamin C] | – | – | – | – | – | – | 2D fibroblast culture, enhancement of PARP inhibitor compound effects by co-agent ([1]; FIG. 12, WE from patient #78, dexamethasone 3 nM, vitamin C 100 μg/ml): synergistically enhance the PARP inhibitor compound effects; 2D fibroblast culture, enhancement of PARP inhibitor compound effects by co-agent ([1]; FIG. 13, WE from patient #43): synergistically enhance the PARP inhibitor compound effects
2 | Oc1cccc2c(O)nccc12 [1,5-IQD, 1,5-Isoquinolinediol] | either inactive or exhibit a very weak activity | either inactive or exhibit a very weak activity | – | – | – | – | 3D fibroblast-derived matrix formation assay, activity [2]: either inactive or only weakly active
3 | NC(=O)c1cccc(N)c1 [3-AB, 3-Aminobenzamide] | either inactive or exhibit a very weak activity | either inactive or exhibit a very weak activity | did not show any of these effects | did not show any of these effects | – | – | 3D fibroblast-derived matrix formation assay, activity [2]: either inactive or only weakly active
4 | CN(C)Cc1ccc(-c2nc3cccc4c3n2CCNC4=O)cc1 [AG-14351] | – | – | reducing IL-1ß secretion | enhanced cell proliferation | only a very weak effect at a concentration of 10 μM | only a very weak effect at a concentration of 10 μM | inhibits PARP1 with an 1050 (PARP1): low nM range
5 | COC1CCN(C(=O)c2cc(Cc3n[nH]c(=O)c4ccccc34)ccc2F)CC1 [AZD-2461] | – | – | reducing IL-1ß secretion | enhanced cell proliferation | strong and consistent positive effect | strong and consistent positive effect | fibroblast proliferation in the absence of WE [1]: either no effect on fibroblast proliferation in the absence of wound exudate, or only a marginal effect
6 | O=C(c1cc(Cc2n[nH]c(=O)c3ccccc23)ccc1F)N1CCN(C(=O)C2CC2)CC1 [Olaparib] | – | – | reducing IL-1ß secretion | enhanced cell proliferation | strong and consistent positive effect | strong and consistent positive effect | fibroblast proliferation in the absence of WE [1]: either no effect on fibroblast proliferation in the absence of wound exudate, or only a marginal effect; HDF proliferation with wound exudate #78, plus PDGF [1]: even further enhanced by the addition of PDGF; HDF proliferation with wound exudate #78 [1]: dose-dependent increase of HDF proliferation; effect on PDGF-induced induction of proliferation in the absence of WE ([1]; no WE): either had no effect on PDGF-induced induction of proliferation or showed inhibition of the PDGF effect
7 | CN(C)CC(=O)Nc1ccc2[nH]c(=O)c3ccccc3c2c1.Cl [PJ-34] | either inactive or exhibit a very weak activity | either inactive or exhibit a very weak activity | – | – | – | – | 3D fibroblast-derived matrix formation assay, activity [2]: either inactive or only weakly active; 2D fibroblast culture, PARP inhibitor effect ± dexamethasone ± Vit. C ([1]; FIG. 12, WE from patient #78): only a weak effect; 2D fibroblast culture, PARP inhibitor effect ± dexamethasone ± Vit. C ([1]; FIG. 13, WE from patient #43): only a weak effect
8 | CNCc1ccc(-c2[nH]c3cc(F)cc4c3c2CCNC4=O)cc1 [Rucaparib] | strong and consistent positive effect | strong and consistent positive effect | reducing IL-1ß secretion | enhanced cell proliferation | strong and consistent positive effect | strong and consistent positive effect | fibroblast proliferation in the absence of WE [1]: either no effect on fibroblast proliferation in the absence of wound exudate, or only a marginal effect; HDF proliferation with wound exudate #78, plus PDGF [1]: even further enhanced by the addition of PDGF; HDF proliferation with wound exudate #78 [1]: dose-dependent increase of HDF proliferation; effect on PDGF-induced induction of proliferation in the absence of WE ([1]; no WE): either had no effect on PDGF-induced induction of proliferation or showed inhibition of the PDGF effect
9 | NC(=O)c1cccc2cn(-c3ccc([C@@H]4CCCNC4)cc3)nc12 [niraparib] | – | – | did not show any of these effects | did not show any of these effects | does not show any activity | does not show any activity | inhibits PARP with an 1050 (PARP): low nM range
10 | TGF-ß: Transforming growth factor beta | – | – | – | – | – | – | staining for myofibroblast marker alpha-smooth muscle actin (α-SMA) [4]: increases the staining for the myofibroblast marker alpha-smooth muscle actin (α-SMA)
11 | B1 | – | – | – | – | – | – | HDF proliferation in the presence of WE #78 ([1]; FIG. 14, WE #78, veliparib 10 μM, talazoparib 1 μM, PDGF 20 ng/ml): has no effect; HDF proliferation in the absence of WE ([1]; FIG. 14, no WE, veliparib 10 μM, talazoparib 1 μM, PDGF 20 ng/ml): induces HDF proliferation; HDF proliferation with wound exudate #78 [1]: inactive
